Experimental data from paper PMC8248901 (Journal of clinical haematology, 2021).
Where two headings read alike, the source gives them in different places. Each block holds one compound with its values, some of them ahead of it.

Key:
p38γ = biological target: T1, p38γ (Homo sapiens, UniProt P53778); experiment: In vitro kinase assay using ADP-Glo, p38γ; format: biochemical; conditions: for inhibition of p38γ kinase activity (in words): drugs targeting CDK9, Appendix A Figure 7
T1 construct: human recombinant p38α, β, γ, or δ protein kinases (active full-length) were acquired from SignalChem; purchased SignalChem
T1 sequence (P53778 1-367): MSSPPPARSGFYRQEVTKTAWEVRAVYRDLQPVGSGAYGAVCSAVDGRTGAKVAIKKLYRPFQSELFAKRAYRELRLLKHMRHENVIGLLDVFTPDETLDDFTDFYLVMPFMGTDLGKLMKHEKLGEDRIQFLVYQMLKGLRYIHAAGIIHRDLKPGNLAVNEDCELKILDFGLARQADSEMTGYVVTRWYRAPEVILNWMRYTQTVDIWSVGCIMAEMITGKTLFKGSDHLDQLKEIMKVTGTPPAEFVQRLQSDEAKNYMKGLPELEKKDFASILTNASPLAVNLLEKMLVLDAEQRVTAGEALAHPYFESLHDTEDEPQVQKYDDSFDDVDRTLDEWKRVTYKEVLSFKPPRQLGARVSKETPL
Method: (§1) Therefore, we attempted to screen p38γ inhibitors from […] by performing an in vitro kinase assay using ADP-Glo as readout for activated p38 isoforms.
(§2) To identify p38γ inhibitors using in vitro kinase assay, a library of kinase inhibitors was screened. The library consists of 244 compounds on three plates (EMD Cat#539744, #539745 and #539746) that are mostly ATP mimics. […] For biochemical screening, in vitro kinase assays were performed using an ADP-Glo kit (Promega, Madison, WI) according to the manufacture’s protocol. […] Briefly, for in vitro assay experiments, human recombinant p38α, β, γ, or δ protein kinases (active full-length) were acquired from SignalChem, and the assay was performed followed protocols from the company. […] Then, ADP-Glo Reagent was incubated in the mixture at room temperature for 40 min, followed by incubation of Kinase Detection Reagent for another 30 min. IC50 values were determined using CalcuSyn software (Biosoft, Cambridge, United Kingdom).

CTCL [1] = test system: CTCL; parameters: method as in printed at the place; conditions: authors' previous studies of F7, no ref printed at the place, read-out: IC50, efficacy in CTCL; cited from earlier work
p38α = biological target: T2, p38α (Homo sapiens, UniProt Q16539); experiment: In vitro kinase assay using ADP-Glo, p38α; format: biochemical; conditions: cell-free
T2 construct: human recombinant p38α, β, γ, or δ protein kinases (active full-length) were acquired from SignalChem; purchased SignalChem
T2 sequence (Q16539 whole entry): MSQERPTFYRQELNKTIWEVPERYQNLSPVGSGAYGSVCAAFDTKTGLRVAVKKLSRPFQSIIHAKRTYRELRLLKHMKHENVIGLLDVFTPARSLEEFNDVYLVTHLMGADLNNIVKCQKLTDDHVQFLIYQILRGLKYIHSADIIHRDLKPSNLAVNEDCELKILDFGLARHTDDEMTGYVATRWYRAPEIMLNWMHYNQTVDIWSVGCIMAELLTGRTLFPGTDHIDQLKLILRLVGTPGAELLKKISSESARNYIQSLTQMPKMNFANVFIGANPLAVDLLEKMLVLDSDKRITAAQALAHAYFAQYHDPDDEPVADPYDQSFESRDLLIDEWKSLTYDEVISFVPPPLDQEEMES
Method: as §1, §2

p38δ = biological target: T3, p38δ (Homo sapiens, UniProt O15264); experiment: In vitro kinase assay using ADP-Glo, p38δ; format: biochemical; conditions: cell-free
T3 construct: human recombinant p38α, β, γ, or δ protein kinases (active full-length) were acquired from SignalChem; purchased SignalChem
T3 sequence (O15264 1-365): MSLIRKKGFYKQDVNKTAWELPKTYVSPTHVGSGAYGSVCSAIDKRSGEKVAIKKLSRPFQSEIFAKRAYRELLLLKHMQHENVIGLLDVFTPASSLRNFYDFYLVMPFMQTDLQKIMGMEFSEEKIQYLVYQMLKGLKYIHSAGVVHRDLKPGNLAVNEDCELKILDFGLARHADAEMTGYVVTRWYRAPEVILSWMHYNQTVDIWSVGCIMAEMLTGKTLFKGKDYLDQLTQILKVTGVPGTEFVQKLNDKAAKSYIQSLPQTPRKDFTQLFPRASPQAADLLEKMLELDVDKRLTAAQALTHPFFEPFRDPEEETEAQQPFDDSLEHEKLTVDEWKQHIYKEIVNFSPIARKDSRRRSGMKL
Method: as §1, §2

Hut78 CTCL cells = experiment: cells; format: cell-based; conditions: Homo sapiens
Method: Cell viability was calculated by diluting cell suspensions 1:1 in 0.4% Trypan Blue solution (Sigma, St. Louis, MO) and counting the number of viable cells using a TC20™ automated cell counter (Bio-Rad, Irvine, CA) which automatically excludes the number of non-viable cells stained with trypan blue per total cells. CellTiterGlo Cell Viability Assay (Promega) method was used as described previously. All data points are an average of triplicate experiments.
CellTiterGlo Cell Viability Assay (Promega) was used to measure viability of Hut78 CTCL cells. […] using an automated BMG PHERAstar plate reader (BMG Labtech, Ortenberg, Germany). IC50 values were determined using CalcuSyn software. All experiments were repeated in three independent experiments and data represented are the average of triplicate experiments.

CTCL [2] = experiment: Efficacy in CTCL (IC50s quoted in the discussion); format: cell-based
[3] = test system: relapsed or refractory mantle cell lymphoma (MCL) and diffuse large B-cell lymphoma (DLBCL); parameters: method as in NCT00445341; conditions: flavopiridol, ref NCT00445341, cited from earlier work
[4] = test system: lymphoma or multiple myeloma; parameters: method as in NCT00112723; conditions: flavopiridol, trial terminated (administratively complete); ref NCT00112723; cited from earlier work
[5] = test system: previously treated chronic lymphocytic leukemia or lymphocytic lymphoma; parameters: method as in NCT00058240; conditions: ref NCT00058240, cited from earlier work
[6] = test system: refractory metastatic pancreatic cancer; parameters: method as in NCT00331682; conditions: docetaxel followed by flavopiridol; ref NCT00331682; cited from earlier work
[7] = test system: advanced ovarian epithelial cancer or primary peritoneal cancer; parameters: method as in NCT00083122; conditions: cisplatin together with flavopiridol, ref NCT00083122, cited from earlier work
[8] = test system: advanced stomach or gastro-esophageal junction cancer; parameters: method as in NCT00991952; conditions: irinotecan hydrochloride with or without alvocidib; ref NCT00991952; cited from earlier work
[9] = test system: newly diagnosed acute myeloid leukemia; parameters: method as in NCT00407966; conditions: alvocidib together with cytarabine and mitoxantrone; ref NCT00407966; cited from earlier work
[10] = test system: newly diagnosed acute myeloid leukemia; parameters: method as in NCT01349972; conditions: alvocidib, cytarabine, and mitoxantrone hydrochloride; ref NCT01349972; cited from earlier work
[11] = test system: newly diagnosed acute myeloid leukemia; parameters: method as in NCT00795002; conditions: ref NCT00795002, cited from earlier work
[12] = test system: relapsed or refractory acute myeloid leukemia; parameters: method as in NCT00634244; conditions: combination chemotherapy regimen, not given; ref NCT00634244; cited from earlier work
Hut78 cells = experiment: Combination treatment of FVP and niclosamide, MTS, CI by CompuSyn; format: cell-based; conditions: 72 hours
[13] = HuT78, read-out: Cytotoxicity IC50, Hut78 CTCL cells
[14] = arm 1, alvocidib with cytarabine and mitoxantrone
[15] = arm 2, alvocidib with cytarabine and mitoxantrone

SMILES: Cc1ccc([N+](=O)[O-])cc1S(=O)(=O)N(C)/N=C/c1cnc2ccc(Br)cn12 [F7]
- inhibition of p38γ kinase activity (in words) (p38γ): inhibit p38γ kinase activity
- IC50 (CTCL [1]): 29 to 33 nM

SMILES: O=C(Nc1ccc([N+](=O)[O-])cc1Cl)c1cc(Cl)ccc1O [niclosamide]
- CI (Hut78 cells; FVP 60.0 nM + Nic 0.2 μM (200 nM)): 0.6
- CI (Hut78 cells; FVP 240.0 nM + Nic 0.2 μM (200 nM)): 0.7

More lines, main results first:

- IC50 (p38α): 1340 nM
- IC50 (p38δ): 450 nM
- IC50 (CTCL [2]): 120 nM
SMILES: CN1CC[C@H](c2c(O)cc(O)c3c(=O)cc(-c4ccccc4Cl)oc23)[C@H](O)C1 [FVP, Flavopiridol]
- IC50 (Hut78 CTCL cells; [13]): 94 nM
- IC50 (Hut78 CTCL cells; HuT78, read-out: Cytotoxicity IC50, Hut78 cells, abstract): < 100 nM
- serious adverse events ([3]; patients affected/total): 14/28
- partial response ([3]; patients responding/evaluated): 2/26
- complete response [3]: no complete response
- partial response [4]: 6/43 partial response
- ORR ([5]; flavopiridol): 21/52
- serious adverse events ([5]; highest dose group): 1/16
- serious adverse events ([5]; lower dose group): 11/42
- median overall survival [6]: 4.2 months
- median time to disease progression [6]: 8 weeks
- serious adverse events [6]: 9/9
- stable disease [6]: 3/9
- complete response ([7]; out of 45 patients): 1
- partial responses ([7]; out of 45 patients): 8
- Median OS [7]: 17.5 months
- median time to progression [7]: 4.3 months
- serious adverse events [7]: 23/45
- partial response [8]: 1/13
- serious adverse events [8]: 6/13
- stable disease [8]: 4/13
- serious adverse events [9]: 19/45
- complete response [10]: 76/109
- serious adverse events [10]: 53/114
- Serious adverse event [11, 14]: 8/39
- complete response [11, 14]: 24/37
- Serious adverse event [11, 15]: 8/39
- complete response [11, 15]: 29/37
- Serious adverse event [12]: 36/36
- complete remission [12]: 10/36

- IC50 (p38γ; cell-free, ADP-Glo): 1600 nM
- targets p38δ isoform (in words) (p38δ): targets three isoforms except p38δ
SMILES: O=c1c(O)c(-c2cc(O)c(O)c(O)c2)oc2cc(O)cc(O)c12 [Myricetin]
- IC50 (Hut78 CTCL cells; [13]): 19200 nM

- inhibition of p38γ kinase activity (in words) (p38γ): inhibit p38γ kinase activity
SMILES: CN1CCC(c2c(O)cc(O)c3c(=O)cc(-c4ccccc4Cl)oc23)C1CO (centres unmarked) [P276-00]
